Measurements as given in patent US20090036474A1, “Quinazoline derivatives for use against cancer” (priority 2004, published 2009).

Biological target: T1, phospho-Tyr751 PDGFRβ (Homo sapiens, UniProt P09619)
T1 construct: phosphorylation of PDGFR expressed on MG63 osteosarcoma cells; endogenous in cells; host or cells: MG63 osteosarcoma cells
Test: In vitro phospho-Tyr751 PDGFRβ ELISA assay in MG63 osteosarcoma cells, Test (b)
Format: cell-based
Conditions: MG63 cells stimulated with PDGFBB, read-out: IC50 versus phospho-Tyr751 PDGFRβ
Method: This assay uses a conventional ELISA method to determine the ability of test compounds to inhibit phosphorylation of tyrosine in PDGFRβ.
An MG63 osteosarcoma cell line [American Type Culture Collection (ATCC) CCL 1427] was routinely maintained at 37° C. with 7.5% CO2 in Dulbecco's modified Eagle's growth medium (DMEM; Sigma-Aldrich; Catalogue No. D6546) containing 10% foetal calf serum (FCS; Sigma-Aldrich; Catalogue No. F7524) and 2 mM L-glutamine (Invitrogen Ltd., Paisley, UK; Catalogue No. 25030-024).
For the assay, the cells were detached from the culture flask using a trypsin/ethylenediaminetetraacetic acid (EDTA) mixture (Invitrogen Ltd.; Catalogue No. 15400-054) and resuspended in test media comprising DMEM without phenol red (Sigma-1-Aldrich; Catalogue No. D5921) containing 1% charcoal-stripped-foetal calf serum (FCS) (Sigma-Aldrich; Catalogue No. F7524, stripped by incubation with dextran-coated activated charcoal at 55° C. for 30 minutes with continuous stirring followed by removal of the charcoal by centrifugation and filter sterilisation) and 2 mM L-glutamine (Invitrogen Ltd., Catalogue No. 25030-024) to give 6×10^4 cells per ml. […]

T1 sequence (P09619 33-1106): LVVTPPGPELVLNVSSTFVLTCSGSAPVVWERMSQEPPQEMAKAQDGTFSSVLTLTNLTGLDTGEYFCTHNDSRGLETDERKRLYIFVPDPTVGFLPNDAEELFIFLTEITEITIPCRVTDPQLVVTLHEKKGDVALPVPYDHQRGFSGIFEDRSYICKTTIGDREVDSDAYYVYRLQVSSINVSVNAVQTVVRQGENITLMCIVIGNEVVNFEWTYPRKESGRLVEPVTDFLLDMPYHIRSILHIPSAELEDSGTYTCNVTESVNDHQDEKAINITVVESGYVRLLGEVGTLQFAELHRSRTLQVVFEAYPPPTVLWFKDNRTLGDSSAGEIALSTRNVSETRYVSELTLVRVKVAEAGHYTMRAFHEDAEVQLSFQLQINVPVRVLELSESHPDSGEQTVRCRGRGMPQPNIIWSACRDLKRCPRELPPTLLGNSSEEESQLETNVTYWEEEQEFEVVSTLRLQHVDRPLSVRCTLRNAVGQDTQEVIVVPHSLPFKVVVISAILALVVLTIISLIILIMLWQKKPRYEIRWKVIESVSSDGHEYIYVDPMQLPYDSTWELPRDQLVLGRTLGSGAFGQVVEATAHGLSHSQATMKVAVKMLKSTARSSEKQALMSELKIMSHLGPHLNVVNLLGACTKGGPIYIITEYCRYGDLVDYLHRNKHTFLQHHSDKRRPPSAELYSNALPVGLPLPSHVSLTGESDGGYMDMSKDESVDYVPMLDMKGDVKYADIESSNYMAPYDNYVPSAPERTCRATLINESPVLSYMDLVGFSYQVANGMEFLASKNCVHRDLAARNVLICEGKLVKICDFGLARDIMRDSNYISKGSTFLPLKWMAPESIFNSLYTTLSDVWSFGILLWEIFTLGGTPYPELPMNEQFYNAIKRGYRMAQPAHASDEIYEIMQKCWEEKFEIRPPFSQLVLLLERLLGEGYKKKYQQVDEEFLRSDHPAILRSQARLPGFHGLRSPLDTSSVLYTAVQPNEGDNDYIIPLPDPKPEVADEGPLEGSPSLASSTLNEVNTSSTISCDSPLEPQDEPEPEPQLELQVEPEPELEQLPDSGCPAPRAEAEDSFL

COc1cc2ncnc(Oc3cnn(CC(=O)Nc4cccc5c4OCO5)c3)c2cc1OC [Example 2, N-(2,3-methylenedioxyphenyl)-2-[4-(6,7-dimethoxyquinazolin-4-yloxy)pyrazol-1-yl]acetamide]
IC50: ~3 nM
